The text below walks through data of patent US9512139B2, “Conformationally constrained, fully synthetic macrocyclic compounds” (POLYPHOR AG, priority 2009, dated 2016).

Read-outs that look alike come from different tables or passages of the source. A value given as a limit tells only on which side of the number the result lay.

For series [1] the following is noted: amide bond.
Series [2] is described as follows: Metabolic stability assay, human microsomes. The following applies: human, microsomes; for half-life at 10 µM: both sexes; for Metabolic Stability 60 min hum [% remain.]: both, 1 h, 10 µM. The class given is in vitro ADME.
The target in series [3] is T1, Prostaglandin F (FP) Receptor (Homo sapiens, UniProt P43088).
T1 construct: host or cells: Ca2+ optimized hematopoietic cell lines (rat)
T1 sequence (P43088 whole entry): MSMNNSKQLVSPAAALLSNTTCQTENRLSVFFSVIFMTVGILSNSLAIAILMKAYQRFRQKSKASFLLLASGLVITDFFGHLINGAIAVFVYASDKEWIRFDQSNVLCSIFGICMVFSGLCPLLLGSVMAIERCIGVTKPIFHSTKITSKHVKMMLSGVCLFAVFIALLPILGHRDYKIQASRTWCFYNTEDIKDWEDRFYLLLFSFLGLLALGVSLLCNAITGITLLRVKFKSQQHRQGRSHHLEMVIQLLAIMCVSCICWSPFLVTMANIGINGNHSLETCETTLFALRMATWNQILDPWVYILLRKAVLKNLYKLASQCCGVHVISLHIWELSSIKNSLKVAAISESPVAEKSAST
Briefly: Ca2+ assay (FLIPR) for the GPCR prostaglandin F (FP) receptor, agonist and antagonist mode. The class given is cell-based. The essentials:
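Ca2+-optimized rat hematopoietic cells carrying the receptor were loaded with Fluo-8 in HBSS/20 mM HEPES/2.5 mM probenecid and read on FLIPR. Agonist mode: 10 min compound incubation at 25 °C, % activation relative to Emax. Antagonist mode: stimulation at EC80 of the reference agonist (prostaglandin F2α for FP, 2MeSATP for P2Y1), fluorescence monitored 180 s.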

The nature of series [4]: Metabolic stability assay, CD-1 mouse microsomes. The format is in vitro ADME. The settings on record: CD-1, mouse, microsomes; for half-life at 10 µM: both sexes; for Metabolic Stability 60 min mouse [% remain.]: both, 1 h, 10 µM.
Series [5] can be described thus: in vitro. The settings on record: human, plasma; for Plasma Stability 240 min hum [% remain.]: 4 h; for Plasma Stability 240 min hum [% remain.] / Plasma Stability T½ [min] hum: 10 µM. The class given is in vitro ADME, human.
The nature of series [6]: in vitro. The format is in vitro ADME, mouse. The following applies: both, CD-1, mouse, plasma, 10 µM; for Plasma Stability 240 min mouse [% remain.]: 4 h.
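Wherever Plasma Stability 240 min mouse [% remain.] is given: sodium citrate stabilized mouse plasma, parent compound quantified by HPLC/MS/MS relative to its peak area at time zero, run in triplicate.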
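Wherever Plasma Stability T½ [min] mouse is given: sodium citrate stabilized mouse plasma, parent compound quantified by HPLC/MS/MS relative to its peak area at time zero, run in triplicate.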

`CN1CCC(=O)N2C[C@H](NC(=O)OC(C)(C)C)C[C@H]2COc2ccc(F)cc2C(=O)N(C)[C@H](C(=O)OCc2ccccc2)CCC1=O` gave a ring closure, yield of all isomers in series [1] (from CNCCC(=O)N1C[C@H](NC(=O)OC(C)(C)C)C[C@H]1COc1ccc(F)cc1C(=O)N(C)[C@@H](CCC(=O)O)C(=O)OCc1ccccc1, T3P / i-Pr2NEt, CH2Cl2, 10.6 mM) of 82%.
Consider `CN1CCC[C@H](NS(=O)(=O)c2ccc(-c3ccccc3)cc2)C(=O)N2C[C@@H](NC(=O)Cc3ccc4ccccc4c3)C[C@H]2COc2cccc(c2)C1=O` [Ex. 527, N-[(4S,6S,10S)-10-[([1,1′-biphenyl]-4-ylsulfonyl)amino]-14-methyl-9,15-dioxo-2-oxa-8,14-diazatricyclo[14.3.1.0^4,8]icosa-1(20),16,18-trien-6-yl]-2-(2-naphthyl)acetamide], for which, in series [2], the half-life at 10 µM was found to be 22 min and the “Metabolic Stability 60 min hum [% remain.]” value is given as 23 % remain. In series [3], this compound registered an IC50 of 204 nM and an inhibition at 10 µM of 73%. Further, in series [4], the half-life at 10 µM is 20 min and the “Metabolic Stability 60 min mouse [% remain.]” value turned out to be 24 % remain. In addition, in “in vitro [5]”, the half-life at 10 µM is 109 min and the “Plasma Stability 240 min hum [% remain.]” value came out at 26 % remain.
Regarding `CN1CCC[C@H](NC(=O)Cc2cccc3ccccc23)C(=O)N2C[C@@H](NC(=O)Nc3cccc(N(C)C)c3)C[C@H]2COc2cccc(c2)C1=O` [Ex. 512, N-[(4S,6S,10S)-6-({[3-(dimethylamino)anilino]carbonyl}amino)-14-methyl-9,15-dioxo-2-oxa-8,14-diazatricyclo[14.3.1.0^4,8]icosa-1(20),16,18-trien-10-yl]-2-(1-naphthyl)acetamide], in series [2], the half-life at 10 µM stood at 17 min and the “Metabolic Stability 60 min hum [% remain.]” value stood at 8 % remain. Also, in series [3], the concentration for half-maximal inhibition (IC50) amounted to 120 nM and at 10 µM the inhibition was 97%. In series [4], the half-life at 10 µM was found to be 12 min and the “Metabolic Stability 60 min mouse [% remain.]” value stood at 10 % remain. In addition, in “in vitro [5]”, the Plasma Stability T½ [min] hum was > 240 min and the “Plasma Stability 240 min hum [% remain.]” value came to 86 % remain.
Regarding `CN1CC(=O)N2CCN(C(=O)OC(C)(C)C)C[C@H]2COc2ccc(F)cc2C(=O)N(C)[C@H](C(=O)OCc2ccccc2)CCC1=O`, in series [1] (from CN(CC(=O)O)C(=O)CC[C@@H](C(=O)OCc1ccccc1)N(C)C(=O)c1cc(F)ccc1OC[C@@H]1CN(C(=O)OC(C)(C)C)CCN1, T3P / i-Pr2NEt, CH2Cl2, 10.0 mM), the ring closure, yield of all isomers worked out at 90%.
`CN1CCC[C@H](NC(=O)OCc2ccccc2)C(=O)N2C[C@@H](Oc3ccccc3)C[C@H]2COc2cccc(c2)C1=O` showed a ring closure, yield of all isomers in series [1] (from CN(CCC[C@H](NC(=O)OCc1ccccc1)C(=O)O)C(=O)c1cccc(OC[C@@H]2C[C@H](Oc3ccccc3)CN2)c1, FDPP, DMF, 5.7 mM, 25.0 °C, 20.0 h) of 63%.
`CN1CC(=O)N2C[C@H](NC(=O)OC(C)(C)C)C[C@H]2COc2ccc(F)cc2C(=O)N(C)[C@@H](C(=O)OCc2ccccc2)CCC1=O`: in series [1] (from CNCC(=O)N1C[C@H](NC(=O)OC(C)(C)C)C[C@H]1COc1ccc(F)cc1C(=O)N(C)[C@H](CCC(=O)O)C(=O)OCc1ccccc1, T3P / i-Pr2NEt, CH2Cl2, 5.08 mM), the ring closure, yield of all isomers turned out to be 60%.
In turn, `CN1CC(=O)N2C[C@H](NC(=O)OC(C)(C)C)C[C@H]2COc2ccc(F)cc2C(=O)N(C)[C@H](C(=O)OCc2ccccc2)CCC1=O` yielded a ring closure, yield of all isomers in series [1] (from CNCC(=O)N1C[C@H](NC(=O)OC(C)(C)C)C[C@H]1COc1ccc(F)cc1C(=O)N(C)[C@@H](CCC(=O)O)C(=O)OCc1ccccc1, T3P, CH2Cl2, 10.5 mM, 25.0 °C, 20.0 h) of 87%.
In series [1] (from CN(CCCC[C@H](NC(=O)OCc1ccccc1)C(=O)O)C(=O)c1cncc(OC[C@@H]2C[C@H](NC(=O)OC(C)(C)C)CN2)c1, T3P, CH2Cl2, 4.78 mM), `CN1CCCC[C@H](NC(=O)OCc2ccccc2)C(=O)N2C[C@@H](NC(=O)OC(C)(C)C)C[C@H]2COc2cncc(c2)C1=O` had a ring closure, yield of all isomers of 79%.
In series [1] (from CNCC(=O)N1C[C@H](NC(=O)OC(C)(C)C)C[C@H]1COc1ccc2c(c1)c(C(=O)N(C)[C@@H](CCC(=O)O)C(=O)OCc1ccccc1)c(C)n2C, T3P, CH2Cl2, 9.85 mM), `Cc1c2c3cc(ccc3n1C)OC[C@@H]1C[C@@H](NC(=O)OC(C)(C)C)CN1C(=O)CN(C)C(=O)CC[C@@H](C(=O)OCc1ccccc1)N(C)C2=O` had a ring closure, yield of all isomers of 58%.
With `CCCCCCCCCC(=O)N[C@H]1CN(C)C(=O)c2cccc(c2)OC[C@@H]2C[C@H](NC(=O)Cc3c[nH]c4ccccc34)CN2C(=O)CN(C)C1=O` [Ex. 213, N-[(4S,6S,13S)-6-{[2-(1H-indol-3-yl)acetyl]amino}-11,15-dimethyl-9,12,16-trioxo-2-oxa-8,11,15-triazatricyclo[15.3.1.0^4,8]henicosa-1(21),17,19-trien-13-yl]decanamide], in series [2], the half-life at 10 µM worked out at 16 min and the “Metabolic Stability 60 min hum [% remain.]” value was found to be 0 % remain. Further, in series [3], the half-maximal inhibitory concentration (IC50) is 1700 nM and the inhibition at 10 µM amounted to 78%. In series [4], the half-life at 10 µM came out at 17 min and the “Metabolic Stability 60 min mouse [% remain.]” value is recorded as 4 % remain.
Take `CN1CCC[C@H](NC(=O)Cc2cccc3ccccc23)C(=O)N2C[C@@H](NC(=O)Cc3ccc4ccccc4c3)C[C@H]2COc2cccc(c2)C1=O` [Ex. 505, N-[(4S,6S,10S)-14-methyl-6-{[2-(2-naphthyl)acetyl]amino}-9,15-dioxo-2-oxa-8,14-diazatricyclo[14.3.1.0^4,8]icosa-1(20),16,18-trien-10-yl]-2-(1-naphthyl)acetamide]: in series [2], the half-life at 10 µM amounted to 21 min and the “Metabolic Stability 60 min hum [% remain.]” value was found to be 9 % remain. In series [3], this compound returned an IC50 of 640 nM and an inhibition at 10 µM of 47%. In addition, in “in vitro [6]”, the Plasma Stability T½ [min] mouse was > 240 min and the “Plasma Stability 240 min mouse [% remain.]” value came out at 98 % remain. In series [4], the half-life at 10 µM is 13 min and the “Metabolic Stability 60 min mouse [% remain.]” value is given as 3 % remain. Further, in the series “in vitro [5]”, the Plasma Stability T½ [min] hum was > 240 min and the “Plasma Stability 240 min hum [% remain.]” value worked out at 100 % remain.
For the compound `CN1C[C@H](NC(=O)OCc2ccccc2)C(=O)N(C)CC(=O)N2C[C@@H](NC(=O)Cc3c[nH]c4ccccc34)C[C@H]2COc2cccc(c2)C1=O` [Ex. 200, benzyl N-[(4S,6S,13S)-6-{[2-(1H-indol-3-yl)acetyl]amino}-11,15-dimethyl-9,12,16-trioxo-2-oxa-8,11,15-triazatricyclo[15.3.1.0^4,8]henicosa-1(21),17,19-trien-13-yl]carbamate], in series [2], the half-life at 10 µM was found to be 27 min and the “Metabolic Stability 60 min hum [% remain.]” value is 12 % remain. In series [3], this compound came in with an IC50 of 28000 nM and an inhibition at 10 µM of 38%. Further, in the series “in vitro [6]”, the Plasma Stability T½ [min] mouse is > 240 min and the “Plasma Stability 240 min mouse [% remain.]” value amounted to 100 % remain. Also, in series [4], the half-life at 10 µM was determined as 30 min and the “Metabolic Stability 60 min mouse [% remain.]” value worked out at 26 % remain. In the series “in vitro [5]”, the Plasma Stability T½ [min] hum is > 240 min and the “Plasma Stability 240 min hum [% remain.]” value stood at 91 % remain.
Take `CN1CCC[C@H](NC(=O)OCc2ccccc2)C(=O)N2C[C@@H](NC(=O)Cc3ccc4ccccc4c3)C[C@H]2COc2cccc(c2)C1=O` [Ex. 184, benzyl N-[(4S,6S,10S)-14-methyl-6-{[2-(2-naphthyl)acetyl]amino}-9,15-dioxo-2-oxa-8,14-diazatricyclo[14.3.1.0^4,8]icosa-1(20),16,18-trien-10-yl]carbamate]: in series [2], the half-life at 10 µM turned out to be 15 min and the “Metabolic Stability 60 min hum [% remain.]” value is 0 % remain. In series [3], this compound displayed an IC50 of 520 nM and an inhibition at 10 µM of 74%. Moreover, in the series “in vitro [6]”, the Plasma Stability T½ [min] mouse is > 240 min and the “Plasma Stability 240 min mouse [% remain.]” value stood at 58 % remain. In series [4], the half-life at 10 µM was found to be 22 min and the “Metabolic Stability 60 min mouse [% remain.]” value worked out at 0 % remain. Moreover, in “in vitro [5]”, the Plasma Stability T½ [min] hum is > 240 min and the “Plasma Stability 240 min hum [% remain.]” value worked out at 66 % remain.
Take `CN1CCC[C@H](NC(=O)Cc2cccc(-c3ccccc3)c2)C(=O)N2C[C@@H](NC(=O)Nc3cccc(N(C)C)c3)C[C@H]2COc2cccc(c2)C1=O` [Ex. 525, 2-[1,1′-biphenyl]-3-yl-N-[(4S,6S,10S)-6-({[3-(dimethylamino)anilino]carbonyl}amino)-14-methyl-9,15-dioxo-2-oxa-8,14-diazatricyclo[14.3.1.0^4,8]icosa-1(20),16,18-trien-10-yl]acetamide]: in series [2], the half-life at 10 µM was 16 min and the “Metabolic Stability 60 min hum [% remain.]” value was found to be 13 % remain. In series [3], this compound registered an IC50 of 94 nM and an inhibition at 10 µM of 99%. For the same compound, in series [4], the half-life at 10 µM is 25 min and the “Metabolic Stability 60 min mouse [% remain.]” value is 29 % remain. Also, in the series “in vitro [5]”, the Plasma Stability T½ [min] hum was > 240 min and the “Plasma Stability 240 min hum [% remain.]” value is 100 % remain.
As for `CCCCCCCCCC(=O)N[C@H]1CCCN(C)C(=O)c2cccc(c2)OC[C@@H]2C[C@H](NC(=O)Nc3cccc(N(C)C)c3)CN2C1=O` [Ex. 511, N-[(4S,6S,10S)-6-({[3-(dimethylamino)anilino]carbonyl}amino)-14-methyl-9,15-dioxo-2-oxa-8,14-diazatricyclo[14.3.1.0^4,8]icosa-1(20),16,18-trien-10-yl]decanamide], in series [2], the half-life at 10 µM is 2 min and the “Metabolic Stability 60 min hum [% remain.]” value came out at 1 % remain. In series [3], this compound returned an IC50 of 59 nM and an inhibition at 10 µM of 99%. Also, in series [4], the half-life at 10 µM was 14 min and the “Metabolic Stability 60 min mouse [% remain.]” value is listed as 14 % remain. In “in vitro [5]”, the Plasma Stability T½ [min] hum was > 240 min and the “Plasma Stability 240 min hum [% remain.]” value was found to be 100 % remain.

The term half-life denotes the time needed for the level to fall by half in the phase considered. Read a low half-life as rapid decline. For orientation: IC50 means the concentration needed to halve the response being measured. Lower therefore signals higher potency. A word on the inhibition: it is the share of the control response that was lost under treatment. A higher inhibition goes with a strong effect.
